Laboratory results reported in US5367062A, “Disubstituted and deoxydisubstituted derivatives of α-d-lyxofuranosides having anti-inflammatory and anti-proliferative activity” (Medicarb Inc., priority 1992, dated 1994).
Counter-ions that a name gives are not always drawn.

Key:
[1] = tested on: T cells (BALB/CBYJ responder spleen cells with C57BL/6J stimulator spleen cells); assay: Mixed lymphocyte response (MLR); assay type: cell-based; conditions: Mus musculus, T-cell, 120 h; estimated; 5 days incubation; MTT
Excerpt: i Mixed lymphocyte response (MLR).
(§1) The MLR assay measures the effects of a study compound on the activation and antigen presentation of T-lymphocytes, therefore determining immunomodulatory properties. The mouse spleen cell mitogen-induced blastogenesis and the BUD-8 human fibroblast proliferation assays measure the effects of the compounds of the present invention on cellular proliferation of cells involved in the pathogenesis of autoimmune diseases. These two assays are appropriate as screens to ascertain anti-inflammatory and/or autoimmune diseases.
The MLR is a classical assay used to measure T cell function by studying the proliferation response of T cells which are activated in vitro by genetically disparate stimulator cells. This is accomplished by co-culturing spleen cells from two different strains of mice. Splenic T cell proliferation occurs as a result of cellular activation signals generated by the ongoing cellular interactions.
In performing MLR assays, BALB/CBYJ mice were euthanized by cervical dislocation and their spleens removed. Single cell suspensions were prepared in culture medium (RPMI-1640 with hepes supplemented with 10% calf serum, 2 mM glutamine, 500 units penicillin/streptomycin and 4×10^-5 M 2-mercaptoethanol) using a Teflon pestle. The cells were centrifuged at 1500 RPM and the pellets resuspended in ACT (0.15 M Tris, 0.14 M ammonium chloride, pH 7.2 ) in order to lyse the red blood cells. After a 5 minutes incubation at 37° C. waterbath, the cells were washed and resuspended in culture medium. The splenic lymphocytes were counted. C57BL/6J spleen cells, which were used as stimulator cells, were prepared in the same way. The stimulator cells were treated with 50 μm/ml of mitomycin C for 20 minutes at 37° C., then washed five times in culture medium. The proliferative response were measured by culturing 5×10^5 responder spleen cells with 5×10^5 stimulator cells in 96-well microtiter plates in the presence or absence of test article or vehicle (DMSO). Syngeneic control cultures using mitomycin C treated normal BALB/C spleen cells as the stimulator cells were also run. All cultures were run in triplicate.
Solutions of compounds of the present invention in DMSO were prepared at a stock concentration of 300 mM. Solutions were made in a culture medium to a concentration of 1, 10, 30, 100, and 300 μM. The vehicle DMSO was used as a negative control.
After incubation for 5 days at 37° C. with 5% carbon dioxide, the amount of cell proliferation was measured by adding 20 μl of MTT (10 mg/ml in PBS) (3-[4,5-dimethylthiazol-2-yl]-2,5-diphenyltetrazolium bromide) to each well. plates were incubated for 4 hours at 37° C., after which 180 μl of supernatant was removed and 180 μl of 10% SDS in PBS was added. After an overnight incubation, the optical density (OD) of each well was read on a Molecular Devices microplate reader at 570-650 nm.
The results were determined by calculating the difference between the means of the allogeneic cultures and the means of the syngeneic cultures for each test compound concentration. Differences of the test article groups were compared to the difference of the control group. The percent change from the control was determined and an IC50 estimated. The criteria used to establish activity levels were:
Sixteen (16) novel compounds were assayed for their ability to modulate a Mixed Lymphocyte Response in vitro. The test compounds were added to MLR cultures to give final concentrations of 1, 10, 30, 100, and 300 μm. The responses observed in the test article treated wells were compared to the control wells. […] Based on the estimated IC50 all the test compounds were strong inhibitors of the MLR.

[2] = tested on: mouse spleen cells; assay: Concanavalin A assay (mouse spleen cell mitogen induced blastogenesis); assay type: cell-based; conditions: 72 h, estimated, Con-A 1.25 μg/ml, 3 days, MTT
Excerpt: iii Concanavalin A assay (the mouse spleen cell mitogen induced blastogenesis).
as §1
It is known that the induction and maintenance of most inflammatory diseases are typically due to the unrestricted activity of T-lymphocytes. Therefore, it is advantageous to identify compounds which are modulators of T-lymphocyte activity for eventual use in the regulation of inflammatory diseases, including acquired immune deficiency syndrome, psoriasis, systemic lupus, erythromatosus, and rheumatoid arthritis.
A simple method is used to screen compounds for their ability to modulate T-lymphocyte activity which comprises assessing the capacity of the compounds to alter the activation of murine spleen cells in response to T-lymphocyte mitogen activators, such as Conconavalin-A (Con-A). The method used to measure the effects of the compounds of the present invention on the blastogenic response of spleen cells to the T-lymphocyte mitogen (Con-A) is as follows:
The response of a mouse spleen cells to the T cell mitogen ConA is a classical assay. In this assay, mice were euthanized by cervical dislocation and their spleens removed surgically. A single cell suspension of the spleens was prepared in culture medium (RPMI-1640 with hepes, supplemented with 10% calf serum, 2 mM glutamine, 500 units penicillin/streptomycin, and 4×10^-5 M 2-mercaptoethanol) using a Teflon pestle. The cells were centrifuged at 1500 RPM and the pellets resuspended in ACT (0.15 M Tris, 0.14 M Ammonium chloride, pH 7.2) in order to lyse the red blood cells. After a five minutes incubation in 37° C. waterbath, the cells were washed and resuspended in culture medium. The splenic lymphocytes were counted using an electronic Coulter Counter and diluted to 5.0×10^6 cells/mi.
The test articles were diluted in culture medium to the appropriate concentrations. Aliquots 100 μl were distributed to triplicate wells in a 96-well microtiter plate. 50 μl of lymphocytes (2.5×10^5 cells) were added to each well. Control wells with vehicle and wells with media were also run. Plates were incubated for one hour at 37° C. 50 μl of Con-A (5 μl/ml) were then added to the wells to result in a final concentration of 1.25 μg/ml. After incubation at 37° C. with 5% carbon dioxide for 3 days, proliferation was measured by adding 20 μl of MTT (10 mg/mlin PBS) [3-(4,5-dimethyl-thiazol-2-yl)-2,5-diphenyltetrazoliumbromidel to each well. Plates were incubated for 4 hours at 37° C., after which 180 μl of 10% SDS in PBS were added. After an overnight incubation, the optical density (OD) of each well was read using a Molecular Devices microplate reader at 570-650 nm.
(§2) Duplicate cultures without Con-A were also set up. After 3 days of incubation, supernatants were assayed for lactate dehydrogenase activity to determine the viability of the cells, which is an indication of the toxicity of the test article on the splenic lymphocytes. 0.1 ml of supernatant was mixed with 0.1 ml of the LDH substrate mixture which contains 5.4×10^-2 M L(+) lactate, 6.6×10^-4 M 2-p-iodophenyl-3-p-nitrophenyl tetrazolium chloride, 2.8×10^-4 M phenazine methosulfate, 1.3×10^-3 M AND, and 0.2 M Tris buffer, pH 8.2. Plates were read immediately for 5 minutes at 490 nm using a Molecular Devices microplate reader.
The mean for each test article treated group was determined and compared to the mean of the control group. The percent change from the control was calculated, and the IC50 was estimated. […]

[3] = tested on: BUD-8 human fibroblast; assay: BUD-8 human cell line fibroblast proliferation assay; assay type: cell-based; conditions: 72 h, estimated, BUD-8 cells, 3 days, MTT
Excerpt: ii BUD-8 human cell line fibroblast proliferation assay.
as §1
The skin cell fibroblast line, BUD-8, was originally derived from the normal skin of a person and can now be obtained from the American Type Culture Collection, Rockville, Md. The concentration of the compounds which were used in this assay were: 1, 10, 30, 100, and 300 μM. The vehicle was used as the negative control. Test compounds were prepared in DMSO at a stock concentration of […]. Appropriate dilutions were made in culture medium.
In this assay BUD-8 cells were collected, counted, and diluted to 2×10^4 cells/ml. 0.1 ml was plated per well to give 2×10^3 cells/well. The compounds of the present invention were diluted in culture medium to the appropriate concentrations. Aliquotes of 100 μl were distributed to triplicate wells. Control wells with vehicle and wells with media were also run. After a three day incubation at 37° C. with 5% carbon dioxide, proliferation was measured by adding 20 μl of MTT (10 mg/ml in PBS) (3-[4,5-dimethyl thiazol-2-yl]-2,5diphenyl-tetrazolium bromide) to each well. Plates were incubated for 4 hours at 37° C., after which 180 μl of 10% SDS in PBS were added. After an overnight incubation, the optical density (OD) of each well was read using a Molecular Devices microplate reader at 570-650 nm.
as §2, with “cultures” for “cultures without Con-A”, “set up to measure viability.” for “set up.”, “dehydrogenase (LDH)” for “dehydrogenase”, “the BUD-8 cells.” for “the splenic lymphocytes.”, “of supernatent” for “of supernatant”, “Tris buffer. PH” for “Tris buffer, pH”
The mean for each test article treated group was determined and compared to the mean of the control group. The percent change from the control was calculated, and the IC50 estimated. The criteria used to establish activity levels were:
Sixteen (16) test articles were assayed for their ability to inhibit fibroblast proliferation. The test article were added to BUD-8 cell cultures to give final concentrations of 1, 10, 30, 100, and 300 μM. The proliferation observed in the test article treated wells were compared to the DMSO control wells.

[4] = tested on: various tumor cell lines, derived from seven cancer types; assay: Tumor cell line screens (leukemia, melanoma, lung, colon, renal, ovarian, brain cancer); assay type: cell-based; conditions: average over tumor cell lines; read-out: GI (Average GI50) (converted)
Procedure: The compounds of the present invention were also tested against various tumor cell lines, derived from seven cancer types. These include leukemia, melanoma, lung cancer, colon cancer, renal cancer, ovarian cancer, and brain cancer. Most of the compounds have shown significant activity in various screens, particularly against colon cancer and melanoma.

[5] = tested on: rheumatoid arthritis; conditions: cited from earlier work

Structure (SMILES)	IC50 [1]	IC50 [2]	IC50 [3]	GI50 [4]	Anti-inflammatory activity (in words) ([5]; in vivo)	Utility in managing the signs and symptoms of rheumatoid arthritis (in words) ([5]; late Phase III clinical trials)
CCCCCCCCCOCCCO[C@H]1O[C@H](CN2CCCC2)[C@@H]2OC(C)(C)O[C@H]12 [XVI]	< 1 µM	3.5 µM	58 µM	5.13 µM		
CCCCCCCCCNC[C@H]1O[C@H](OCCCc2ccccc2)[C@H]2OC(C)(C)O[C@H]21 [XXIX, Phenylpropyl 5-deoxy-2,3-0-(1-methylethylidene)-5-aminononyl-α-D-lyxofuranoside]	1.5 µM	5 µM	20 µM	32.4 µM		
CCCCCCCCCOCCCO[C@H]1O[C@H](COCCN2CCCCC2)[C@@H]2OC(C)(C)O[C@H]12 [VI, n-Nonyloxypropyl 2,3-0-(1-methlethylidene)-5-0-N'-ethylpiperidinyl-α-D-lyxofuranoside]	0.5 µM	2.7 µM	> 100 µM			
CCCCCCCCCOCCCO[C@H]1O[C@H](COCCN2CCCC2)[C@@H]2OC(C)(C)O[C@H]12 [V, n-Nonyloxypropyl 2,3-0-(1-methlethylidene)-5-0-N'-ethylpyrrolidinyl-α-D-lyxofuranoside]	< 1 µM	2.9 µM	28 µM	5.62 µM		
CN(C)CCCO[C@@H]1[C@H]2OC(C)(C)O[C@H]2O[C@@H]1[C@H](O)CO [Amiprilose. HCl, 1,2-0-isopropylidene-3-0-3'-(N',N'-dimethylaminopropyl)-α-D-glucofuranose]					known to have anti-inflammatory activity	demonstrated utility in managing the signs and symptoms of rheumatoid arthritis
CN(C)CCCOC[C@H]1O[C@H](OCCCc2ccccc2)[C@H]2OC(C)(C)O[C@H]21 [X]	< 1 µM	55 µM	299 µM	91.2 µM		
CC1(C)O[C@@H]2[C@@H](OCCCc3ccccc3)O[C@H](CN3CCCC3)[C@@H]2O1 [XXV, Phenylpropyl 5-deoxy-2,3-0-(1-methylethylidene)-5-pyrrolidinyl-α-D-lyxofuranoside]	12 µM	25 µM	200 µM	95.5 µM		
CCCCCCCCCOCCCO[C@H]1O[C@H](CNCCCN2CCCC2)[C@@H]2OC(C)(C)O[C@H]12 [XXIV, n-Nonyloxypropyl 5-deoxy-2,3-0-(1-methylethylidene)-5-aminopropylpyrrolidinyl-α-D-lyxofuranoside]	0.85 µM	2.5 µM	16 µM			
